The values below come from ChEMBL document CHEMBL1221248, “Synthesis and SAR of (piperazin-1-yl-phenyl)-arylsulfonamides: a novel series of atypical antipsychotic agents” (Bioorg Med Chem Lett, 2010).

Structures are written as SMILES. Activity calls are given as the source filed them. No cut-off for these calls is given here. Where only a bound is given, the exact number is not on record here.

Experiment [1] deals with T1, 5-hydroxytryptamine receptor 6 (Homo sapiens, UniProt P50406). Description: Displacement of [3H]LSD from human 5HT6 receptor expressed in HEK293 cells. Type of experiment: cell-based.
Target sequence in this assay (P50406 whole entry): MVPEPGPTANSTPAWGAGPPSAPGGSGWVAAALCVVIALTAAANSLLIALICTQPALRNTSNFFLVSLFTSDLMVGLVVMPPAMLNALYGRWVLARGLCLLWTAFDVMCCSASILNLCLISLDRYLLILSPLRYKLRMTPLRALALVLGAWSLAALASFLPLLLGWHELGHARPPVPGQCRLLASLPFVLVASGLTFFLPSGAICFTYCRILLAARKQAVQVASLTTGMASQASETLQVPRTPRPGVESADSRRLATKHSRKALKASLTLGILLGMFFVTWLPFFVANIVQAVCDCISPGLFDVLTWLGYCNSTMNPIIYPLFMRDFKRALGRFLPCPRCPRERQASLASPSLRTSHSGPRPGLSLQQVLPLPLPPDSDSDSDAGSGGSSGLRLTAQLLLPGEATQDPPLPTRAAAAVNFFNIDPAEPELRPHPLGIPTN
For experiment [2], the target named is T2, 5-hydroxytryptamine receptor 2C (Homo sapiens, UniProt P28335).
T2 sequence (P28335 whole entry): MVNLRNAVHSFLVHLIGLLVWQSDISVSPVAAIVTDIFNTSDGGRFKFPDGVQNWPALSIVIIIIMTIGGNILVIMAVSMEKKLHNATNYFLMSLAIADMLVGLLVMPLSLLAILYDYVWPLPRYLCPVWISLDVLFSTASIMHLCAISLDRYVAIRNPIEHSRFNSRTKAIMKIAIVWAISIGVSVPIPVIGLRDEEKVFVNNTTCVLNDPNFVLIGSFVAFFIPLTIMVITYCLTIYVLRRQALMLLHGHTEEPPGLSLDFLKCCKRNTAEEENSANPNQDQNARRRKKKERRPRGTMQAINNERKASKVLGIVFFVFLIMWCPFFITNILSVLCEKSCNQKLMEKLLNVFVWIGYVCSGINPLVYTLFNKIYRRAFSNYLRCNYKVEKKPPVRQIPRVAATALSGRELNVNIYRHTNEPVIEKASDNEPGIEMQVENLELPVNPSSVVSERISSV
Description: Displacement of [3H]mesulergine from human 5HT2C expressed in CHOKI cells. Type of experiment: cell-based.

Experiment [3] has as its target T3, D(4) dopamine receptor (Homo sapiens, UniProt P21917).
T3 sequence (P21917 whole entry): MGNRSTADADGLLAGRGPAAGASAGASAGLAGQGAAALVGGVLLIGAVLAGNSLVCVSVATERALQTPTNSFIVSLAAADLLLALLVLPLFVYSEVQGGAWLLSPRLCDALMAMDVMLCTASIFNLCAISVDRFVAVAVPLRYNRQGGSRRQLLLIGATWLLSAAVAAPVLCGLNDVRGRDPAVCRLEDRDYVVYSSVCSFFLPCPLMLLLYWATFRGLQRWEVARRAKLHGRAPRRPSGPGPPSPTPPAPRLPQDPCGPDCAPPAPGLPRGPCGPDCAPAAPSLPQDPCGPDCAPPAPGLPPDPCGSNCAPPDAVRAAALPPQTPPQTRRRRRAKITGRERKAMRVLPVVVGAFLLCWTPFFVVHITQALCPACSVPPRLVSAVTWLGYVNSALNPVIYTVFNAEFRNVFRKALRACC
Description: Displacement of [3H]spiperone from human dopamine D4 receptor expressed in CHOKI cells. Format: cell-based.

The target in experiment [4] is D(3) dopamine receptor (Homo sapiens, UniProt P35462). Description: Displacement of [3H]spiperone from human dopamine D3 receptor expressed in CHOKI cells. Format: cell-based.
Sequence of D(3) dopamine receptor (P35462 whole entry): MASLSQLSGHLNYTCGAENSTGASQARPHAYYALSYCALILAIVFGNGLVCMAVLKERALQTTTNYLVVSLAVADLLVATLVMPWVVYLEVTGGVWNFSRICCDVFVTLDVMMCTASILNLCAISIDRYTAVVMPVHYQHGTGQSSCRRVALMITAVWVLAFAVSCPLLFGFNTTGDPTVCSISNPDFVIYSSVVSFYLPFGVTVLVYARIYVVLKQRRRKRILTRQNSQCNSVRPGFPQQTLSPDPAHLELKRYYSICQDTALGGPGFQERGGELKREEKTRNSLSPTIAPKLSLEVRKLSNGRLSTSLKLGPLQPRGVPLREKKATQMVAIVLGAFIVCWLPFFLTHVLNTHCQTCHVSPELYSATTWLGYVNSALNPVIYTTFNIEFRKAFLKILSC
In experiment [5] the target is T4, 5-hydroxytryptamine receptor 1A (Homo sapiens, UniProt P08908).
T4 sequence (P08908 whole entry): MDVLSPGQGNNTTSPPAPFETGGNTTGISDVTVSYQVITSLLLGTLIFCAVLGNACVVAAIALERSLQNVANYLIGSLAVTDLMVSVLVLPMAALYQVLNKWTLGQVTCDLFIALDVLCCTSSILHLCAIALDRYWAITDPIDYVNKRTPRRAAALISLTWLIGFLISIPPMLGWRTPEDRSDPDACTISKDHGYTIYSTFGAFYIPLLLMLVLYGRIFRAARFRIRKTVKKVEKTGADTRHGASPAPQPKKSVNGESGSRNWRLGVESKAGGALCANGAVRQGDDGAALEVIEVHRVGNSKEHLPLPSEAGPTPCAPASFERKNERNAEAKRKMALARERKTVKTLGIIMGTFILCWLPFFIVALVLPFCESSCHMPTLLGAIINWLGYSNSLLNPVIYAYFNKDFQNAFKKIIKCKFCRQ
In words: Displacement of [3H]8-OH-DPAT from human 5HT1A expressed in CHOKI cells. Type of experiment: cell-based.

Experiment [6] has as its target 5-hydroxytryptamine receptor 2A (Homo sapiens, UniProt P28223). Description: Displacement of [3H]ketanserin from human 5HT2A expressed in CHOKI cells. Format: cell-based.
The target in experiment [7] is 5-hydroxytryptamine receptor 7 (Homo sapiens, UniProt P34969). Description: Displacement of [3H]LSD from human 5HT7 expressed in CHOKI cells. Format: cell-based.
Sequence of 5-hydroxytryptamine receptor 7 (P34969 whole entry): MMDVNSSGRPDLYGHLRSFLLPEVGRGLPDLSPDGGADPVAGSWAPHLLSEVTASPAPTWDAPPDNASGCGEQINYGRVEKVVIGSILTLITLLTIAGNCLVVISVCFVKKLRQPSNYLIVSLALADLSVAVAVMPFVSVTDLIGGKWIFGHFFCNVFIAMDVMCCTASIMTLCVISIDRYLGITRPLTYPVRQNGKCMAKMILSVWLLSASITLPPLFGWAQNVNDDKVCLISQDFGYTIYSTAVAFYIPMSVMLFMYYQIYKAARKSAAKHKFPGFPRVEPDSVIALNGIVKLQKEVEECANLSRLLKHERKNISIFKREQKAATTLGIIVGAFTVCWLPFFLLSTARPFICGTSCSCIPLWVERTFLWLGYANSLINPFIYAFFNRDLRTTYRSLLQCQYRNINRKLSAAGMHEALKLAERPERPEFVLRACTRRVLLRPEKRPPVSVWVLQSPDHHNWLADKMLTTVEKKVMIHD
Experiment [8] deals with D(2) dopamine receptor (Homo sapiens, UniProt P14416). Description: Displacement of [3H]spiperone from human dopamine D2 expressed in CHOKI cells. Type of experiment: cell-based.
Sequence of D(2) dopamine receptor (P14416 whole entry): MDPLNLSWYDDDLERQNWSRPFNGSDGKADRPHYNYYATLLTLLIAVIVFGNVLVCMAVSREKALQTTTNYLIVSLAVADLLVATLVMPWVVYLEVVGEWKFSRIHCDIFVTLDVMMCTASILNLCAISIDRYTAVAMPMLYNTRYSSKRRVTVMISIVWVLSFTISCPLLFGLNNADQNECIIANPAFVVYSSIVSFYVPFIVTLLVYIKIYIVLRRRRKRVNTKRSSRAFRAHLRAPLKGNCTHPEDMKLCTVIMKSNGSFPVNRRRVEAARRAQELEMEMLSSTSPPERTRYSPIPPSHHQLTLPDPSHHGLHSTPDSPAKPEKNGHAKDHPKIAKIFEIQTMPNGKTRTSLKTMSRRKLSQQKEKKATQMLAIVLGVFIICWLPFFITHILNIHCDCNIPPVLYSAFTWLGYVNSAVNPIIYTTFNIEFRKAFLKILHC
The species named for experiment [9] is Homo sapiens. In words: Selectivity ratio of IC50 for human dopamine D2 to IC50 for human 5HT6 receptor.
The species entered for experiment [10] is Homo sapiens. In words: Selectivity ratio of IC50 for human dopamine D3 to IC50 for human 5HT2C.
The species named for experiment [11] is Homo sapiens. In words: Selectivity ratio of IC50 for human 5HT1A to IC50 for human 5HT6 receptor.
The species entered for experiment [12] is Homo sapiens. In words: Selectivity ratio of IC50 for human 5HT1A to IC50 for human 5HT2C.
For experiment [13], the species on record is Homo sapiens. In words: Selectivity ratio of IC50 for human 5HT7 to IC50 for human 5HT6 receptor.
In experiment [14] the target is T1, 5-hydroxytryptamine receptor 6. In words: Antagonist activity at human 5HT6 expressed in human HeLa cells assessed as inhibition of 5-HT-stimulated cAMP accumulation.
Target sequence in this assay (P50406 whole entry, looked up): as the sequence (P50406 whole entry) above
Experiment [15] addresses Serotonin 2 receptors; 5-HT2a & 5-HT2c (Homo sapiens) (UniProt P28223+P28335). In words: Selectivity ratio of IC50 for human 5HT2A to IC50 for human 5HT2C.
The species named for experiment [16] is Homo sapiens. In words: Selectivity ratio of IC50 for human dopamine D4 to IC50 for human 5HT2C.
The target in experiment [17] is T1, 5-hydroxytryptamine receptor 6. Description: Antagonist activity at human 5HT6 receptor expressed in human HeLa cells assessed as inhibition of 5-HT-stimulated cAMP production. Type of experiment: functional, cell-based.
Target sequence in this assay (P50406 whole entry): as above
For experiment [18], the species on record is Homo sapiens. In words: Selectivity ratio of IC50 for human dopamine D2 to IC50 for human 5HT2C.
The species entered for experiment [19] is Homo sapiens. In words: Selectivity ratio of IC50 for human dopamine D3 to IC50 for human 5HT6 receptor.
Experiment [20] has as its target T5, 5-hydroxytryptamine receptor 2C (Homo sapiens) (UniProt P28335).
T5 sequence (whole entry): T2 sequence (P28335 whole entry)
Description: Antagonist activity at human 5HT2C expressed in CHO cells assessed as inhibition of 5-HT-stimulated [35S]GTPgamma binding. Format: functional, cell-based.

Experiment [21] is filed under the species Homo sapiens. Description: Selectivity ratio of IC50 for human 5HT2A to IC50 for human 5HT6 receptor.
For experiment [22], the species on record is Homo sapiens. In words: Selectivity ratio of IC50 for human 5HT7 to IC50 for human 5HT2C.
The species named for experiment [23] is Homo sapiens. Description: Selectivity ratio of IC50 for human dopamine D4 to IC50 for human 5HT6 receptor.

Sequence of 5-hydroxytryptamine receptor 2A (P28223 whole entry): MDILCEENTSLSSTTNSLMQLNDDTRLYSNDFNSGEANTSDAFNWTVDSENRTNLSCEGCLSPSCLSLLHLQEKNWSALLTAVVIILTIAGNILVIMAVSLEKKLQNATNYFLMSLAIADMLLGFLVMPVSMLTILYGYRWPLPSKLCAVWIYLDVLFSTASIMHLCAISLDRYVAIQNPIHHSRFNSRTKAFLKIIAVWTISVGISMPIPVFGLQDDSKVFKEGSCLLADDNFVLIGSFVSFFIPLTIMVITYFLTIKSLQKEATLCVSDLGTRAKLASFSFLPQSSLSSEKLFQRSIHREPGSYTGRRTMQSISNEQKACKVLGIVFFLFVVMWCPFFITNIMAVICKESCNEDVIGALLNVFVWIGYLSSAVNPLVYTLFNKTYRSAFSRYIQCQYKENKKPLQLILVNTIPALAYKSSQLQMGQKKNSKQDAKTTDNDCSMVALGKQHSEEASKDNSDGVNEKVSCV
Sequence of Serotonin 2 receptors; 5-HT2a & 5-HT2c (Homo sapiens) (P28223 whole entry, looked up, one chain of several): as the sequence (P28223 whole entry) above

Turning to `CCN(c1cccc(N2CCN(C)CC2)c1)S(=O)(=O)c1ccc2ccccc2c1`, the half-inhibitory concentration (IC50) in experiment [1] is 3 nM; in [2], 16 nM; in experiment [3] it was more than 10000 nM; in experiment [4] it was 1170 nM; in experiment [5], 485 nM; in [6] it was 218 nM. For the same molecule, the half-inhibitory concentration (IC50) was 2060 nM in experiment [7] and more than 10000 nM in experiment [8].

With `CC(C)N(c1cccc(N2CCN(C)CC2)c1)S(=O)(=O)c1ccccc1`, the IC50 in experiment [1] was 644 nM; in experiment [2] it was 21 nM; in experiment [3] it was more than 10000 nM; in experiment [4], 2890 nM; in [5], 3400 nM; in experiment [6], 172 nM. Also, the figures for the IC50 in [7] and in experiment [8] were 1010 nM and more than 10000 nM, respectively.

Turning to `CC(C)N(c1cccc(N2CCN(C)CC2)c1)S(=O)(=O)c1ccc2ccccc2c1`, the Ratio IC50 in [9], in experiment [10], in experiment [11], in experiment [12], in [13] and in experiment [15] was more than 25 throughout. Also, the Ratio IC50 in [16], in experiment [18], in experiment [19], in experiment [21], in [22] and in experiment [23] was more than 25 throughout. Moreover, the IC50 in [1] is 3 nM; in experiment [2], 4 nM; in experiment [3], more than 1000 nM; in [4], 248 nM; in experiment [5], more than 1000 nM; in [6], 118 nM. Also, the IC50 in [8] was more than 10000 nM. For the same molecule, the inhibition entry in [14] and in [17] was “Active” throughout. The inhibition entry in experiment [20] was “Dose-dependent effect”.

Regarding `CCCN(c1cccc(N2CCN(C)CC2)c1)S(=O)(=O)c1ccc2ccccc2c1`, the Ratio IC50 in experiment [9], in experiment [10], in experiment [11], in experiment [12], in [13] and in experiment [15] was more than 25 each time. In addition, the Ratio IC50 in experiment [16], in [18], in [19], in experiment [21], in experiment [22] and in [23] was more than 25 in each case. In addition, the IC50 was 4 nM in experiment [1]; 7 nM in [2]; more than 10000 nM in experiment [3]; 2510 nM in experiment [4]; 3760 nM in experiment [5]; 389 nM in [6]. Further, the IC50 in experiment [7] is 3860 nM; in [8], more than 10000 nM.

Consider `CN1CCN(c2cccc(N(CC3CC3)S(=O)(=O)c3ccc4ccccc4c3)c2)CC1`, for which the IC50 in experiment [1] is 6 nM; in experiment [2], 6 nM; in experiment [3] it was more than 10000 nM; in experiment [4], 1430 nM; in [5] it was 672 nM; in experiment [6], 88 nM. Besides, the IC50 in experiment [7] is 3040 nM; in experiment [8], more than 10000 nM.

`CN1CCN(c2cccc(NS(=O)(=O)c3ccc4ccccc4c3)c2)CC1`: the IC50 in experiment [1] is 13 nM; in experiment [2], 5150 nM; in experiment [3] it was more than 10000 nM; in experiment [4], 2100 nM; in [5], 57 nM; in experiment [6], 1620 nM. Further, the IC50 in experiment [7] was 1580 nM; in experiment [8], more than 10000 nM.

Take `CN1CCN(c2cccc(N(C)S(=O)(=O)c3ccc4ccccc4c3)c2)CC1`: the IC50 in experiment [1] is 7 nM; in experiment [2], 36 nM; in [3], more than 10000 nM; in [4], 2420 nM; in experiment [5], 95 nM; in [6], 1420 nM. Besides, the concentration for half-maximal inhibition (IC50) in experiment [7] is 4430 nM; in experiment [8], more than 10000 nM.

Turning to `CC(C)N(c1cccc(N2CCN(C)CC2)c1)S(=O)(=O)c1cccc2ccccc12`, the 50% inhibitory concentration (IC50) in [1] was 16 nM; in experiment [2] it was 100 nM; in [3], more than 10000 nM; in experiment [4], 1200 nM; in experiment [5], 298 nM; in [6], 122 nM. The half-maximal inhibitory concentration (IC50) was 2870 nM in experiment [7] and more than 10000 nM in experiment [8].

Take `CN1CCN(c2cccc(N(Cc3ccccc3)S(=O)(=O)c3ccc4ccccc4c3)c2)CC1`: the 50% inhibitory concentration (IC50) in experiment [1] is 3 nM; in experiment [2] it was 32 nM; in experiment [3], more than 10000 nM; in [4] it was 943 nM; in experiment [5] it was 280 nM; in experiment [6], 50 nM. Moreover, the IC50 was 2040 nM in experiment [7] and more than 10000 nM in experiment [8].
